Experiments:
Test in all cases: relative viability (nuclei count vs DMSO), 5 days (fraction); higher = more cells survive
AZ3146 + Vorinostat = compound: CN1CCC(CC1)OC2=CC(=C(C=C2)NC3=NC=C4C(=N3)N(C(=O)N4C)C5CCCC5)OC [AZ3146] + O=C(CCCCCCC(=O)Nc1ccccc1)NO [Vorinostat] (partner 1 µM)
Method in brief: (§1)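 Relative viability was taken as the ratio of nuclei in treated wells to nuclei in vehicle wells. Lung cancer cell lines in 1536-well plates received compounds by pin tool one day after seeding, either one drug alone or a fixed anchor-drug dose plus five library-drug doses (not always all listed) in √10 steps. Nuclei were counted on 4× images after 5 days of treatment, and values are medians of duplicate plates.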

AZ3146 + Lapatinib = compound: CN1CCC(CC1)OC2=CC(=C(C=C2)NC3=NC=C4C(=N3)N(C(=O)N4C)C5CCCC5)OC [AZ3146] + CS(=O)(=O)CCNCc1ccc(-c2ccc3ncnc(Nc4ccc(OCc5cccc(F)c5)c(Cl)c4)c3c2)o1 [Lapatinib] (partner 2 µM)
Method in brief: as §1

GSK-J4 + Phenformin = compound: CCOC(=O)CCNc1cc(N2CCc3ccccc3CC2)nc(-c2ccccn2)n1 [GSK-J4] + N=C(N)NC(=N)NCCc1ccccc1 [Phenformin] (partner 250 µM)
Method in brief: as §1

GSK-J4 + Vorinostat = compound: CCOC(=O)CCNc1cc(N2CCc3ccccc3CC2)nc(-c2ccccn2)n1 [GSK-J4] + O=C(CCCCCCC(=O)Nc1ccccc1)NO [Vorinostat] (partner 1 µM)
Method in brief: as §1

Cell Line	relative viability (AZ3146 + Vorinostat; first compound 0.08 µM)	relative viability (AZ3146 + Vorinostat; first compound 0.253 µM)	relative viability (AZ3146 + Vorinostat; first compound 0.8 µM)	relative viability (AZ3146 + Vorinostat; first compound 2.53 µM)	relative viability (AZ3146 + Vorinostat; first compound 8 µM)	relative viability (AZ3146 + Lapatinib; first compound 0.08 µM)	relative viability (AZ3146 + Lapatinib; first compound 0.253 µM)	relative viability (AZ3146 + Lapatinib; first compound 0.8 µM)	relative viability (AZ3146 + Lapatinib; first compound 2.53 µM)	relative viability (AZ3146 + Lapatinib; first compound 8 µM)	relative viability (GSK-J4 + Phenformin; first compound 0.5 µM)	relative viability (GSK-J4 + Phenformin; first compound 1.581 µM)	relative viability (GSK-J4 + Phenformin; first compound 15.81 µM)	relative viability (GSK-J4 + Phenformin; first compound 50 µM)	relative viability (GSK-J4 + Vorinostat; first compound 0.5 µM)	relative viability (GSK-J4 + Vorinostat; first compound 1.581 µM)	relative viability (GSK-J4 + Vorinostat; first compound 15.81 µM)	relative viability (GSK-J4 + Vorinostat; first compound 50 µM)	relative viability (GSK-J4 + Phenformin; first compound 5 µM)	relative viability (GSK-J4 + Vorinostat; first compound 5 µM)
COR-L23	0.38	0.536	0.374	0.415	0.313	1	1.02	0.871	0.923	0.899	0.412	0.408	0.39	0.393	0.474	0.442	0.413	0.361	–	–
NCI-H1355	0.517	0.619	0.69	0.712	0.622	0.854	0.951	0.986	1.03	0.953	0.447	0.39	0.359	0.36	0.654	0.588	0.478	0.469	0.333	0.51
RERF-LC-KJ	0.534	0.657	0.774	0.756	0.576	0.816	0.889	0.839	0.804	0.84	0.424	0.441	0.417	0.341	0.679	0.534	0.613	0.485	0.401	0.576
NCI-H727	1.01	1.22	1.03	1.17	1.11	0.745	0.557	0.79	1.29	0.869	0.566	0.76	0.589	0.441	1.13	0.991	1.03	0.758	0.791	1.45
NCI-H1734	0.646	0.886	0.782	0.795	0.584	1.05	1.17	1.07	1.1	0.942	0.425	0.365	0.332	0.31	0.749	0.788	0.645	0.5	0.328	0.609
NCI-H2126	0.504	0.743	0.709	0.835	0.66	0.691	0.745	0.707	0.818	0.729	0.537	0.505	0.485	0.456	0.762	0.659	0.572	0.567	0.55	0.872
NCI-H23	0.473	0.593	0.572	0.769	0.377	1.11	1.22	1.14	1.31	0.915	0.71	0.723	0.648	0.671	0.596	0.411	0.473	0.506	0.627	0.583
EPLC-272H	0.297	0.52	0.299	0.499	0.329	0.897	0.911	0.957	0.951	0.877	0.347	0.24	0.3	0.154	0.461	0.37	0.335	0.284	0.192	0.599
NCI-H2023	0.422	0.991	0.407	0.471	0.193	0.688	0.922	0.735	0.941	0.179	0.441	–	0.35	0.342	0.59	0.497	0.514	0.283	0.395	0.545
NCI-H647	0.537	0.426	0.607	0.667	0.186	1.05	1.12	1.12	1.25	0.792	0.618	0.398	0.498	0.532	0.59	0.719	0.646	0.43	0.415	0.553
NCI-H661	0.701	0.846	0.786	0.813	0.505	0.661	0.514	0.559	0.537	0.472	0.269	0.312	0.258	0.266	0.833	0.687	0.728	0.608	0.238	0.821
NCI-H1975	0.67	0.736	0.735	0.697	0.327	0.922	0.95	0.928	0.933	0.783	0.415	0.417	0.36	0.428	0.662	0.689	0.632	0.71	0.288	0.637
BEN	–	0.54	0.608	0.558	0.588	–	0.683	0.805	0.659	0.681	0.25	0.261	0.276	0.254	0.559	0.46	0.571	0.505	–	0.511
NCI-H1437	0.774	0.771	0.842	0.839	0.538	0.708	0.739	0.829	0.899	0.519	0.319	0.263	0.371	0.25	0.827	0.608	0.706	0.305	0.308	0.715
NCI-H1666	0.976	1.09	1.01	1.09	0.994	0.681	0.669	0.694	0.891	0.536	0.512	0.515	0.486	0.464	0.956	0.931	1.01	0.737	0.605	0.97
NCI-H2085	0.75	0.786	0.779	0.789	0.701	0.731	0.752	0.7	0.823	0.699	0.724	0.674	0.508	0.582	0.767	0.731	0.634	0.728	0.671	0.697
LXF-289	0.752	0.827	0.796	0.872	0.587	0.846	0.924	0.889	0.907	0.908	0.506	0.445	0.53	0.515	0.821	0.631	0.692	0.653	0.408	0.874

Cell Line	relative viability (AZ3146 + Vorinostat; first compound 0.08 µM)	relative viability (AZ3146 + Vorinostat; first compound 0.253 µM)	relative viability (AZ3146 + Vorinostat; first compound 0.8 µM)	relative viability (AZ3146 + Vorinostat; first compound 2.53 µM)	relative viability (AZ3146 + Vorinostat; first compound 8 µM)	relative viability (AZ3146 + Lapatinib; first compound 0.08 µM)	relative viability (AZ3146 + Lapatinib; first compound 0.253 µM)	relative viability (AZ3146 + Lapatinib; first compound 0.8 µM)	relative viability (AZ3146 + Lapatinib; first compound 2.53 µM)	relative viability (AZ3146 + Lapatinib; first compound 8 µM)	relative viability (GSK-J4 + Phenformin; first compound 0.5 µM)	relative viability (GSK-J4 + Phenformin; first compound 1.581 µM)	relative viability (GSK-J4 + Phenformin; first compound 15.81 µM)	relative viability (GSK-J4 + Phenformin; first compound 50 µM)	relative viability (GSK-J4 + Vorinostat; first compound 0.5 µM)	relative viability (GSK-J4 + Vorinostat; first compound 1.581 µM)	relative viability (GSK-J4 + Vorinostat; first compound 15.81 µM)	relative viability (GSK-J4 + Vorinostat; first compound 50 µM)	relative viability (GSK-J4 + Phenformin; first compound 5 µM)	relative viability (GSK-J4 + Vorinostat; first compound 5 µM)
NCI-H322M	0.798	0.839	0.916	0.904	0.849	0.72	0.593	0.609	0.608	0.584	0.788	0.553	0.729	0.545	0.877	0.964	0.84	0.928	0.806	1.11
LU99A	–	0.507	0.503	0.514	0.481	0.864	1.15	1.06	0.954	0.995	0.866	0.671	0.757	0.554	0.47	0.344	0.476	0.319	–	–
NCI-H650	0.237	0.374	0.265	0.447	0.4	0.804	0.844	0.667	1.02	0.973	0.455	0.419	0.422	0.423	0.358	0.342	0.319	0.266	0.322	–
PC-14	0.538	0.745	0.546	0.359	0.0815	0.285	0.351	0.279	0.382	0.315	0.624	0.555	0.537	0.53	0.721	0.66	0.63	0.509	0.432	0.565
HARA	0.495	0.561	0.559	0.67	0.423	0.652	0.851	0.662	0.822	0.693	0.455	–	0.396	0.386	0.554	0.498	0.311	0.246	–	–
NCI-H1944	0.425	0.579	0.606	0.616	0.543	–	0.801	0.819	0.837	0.987	0.2	0.193	0.155	0.174	0.566	0.477	0.419	0.427	0.124	–
NCI-H1650	0.578	0.392	0.563	0.554	0.475	0.649	1.12	0.562	0.97	0.581	0.512	0.415	0.4	0.408	0.567	0.501	0.48	0.286	0.375	0.663
LK-2	0.159	0.243	0.326	0.388	0.389	0.754	0.961	0.914	1.01	0.841	0.707	–	0.23	0.253	0.193	0.248	0.126	0.579	0.416	0.243
HCC-44	1.07	1.07	1.05	1.12	1.13	0.907	0.953	0.999	1.01	0.971	0.253	0.222	0.124	0.137	1.01	1.09	1.14	1.16	0.134	1.09
CAL-12T	0.695	0.743	0.832	0.778	0.553	0.701	–	0.588	0.771	0.56	0.702	0.549	0.554	0.42	0.723	0.693	0.689	0.682	0.532	0.874
NCI-H2405	0.799	0.969	1.04	1.14	0.927	1.11	–	0.967	1.31	1.29	0.442	0.386	0.335	0.366	0.973	0.925	0.923	0.974	–	–
NCI-H1395	0.66	0.504	–	0.84	0.615	0.853	0.915	0.997	1.19	0.999	0.418	0.459	0.421	0.443	1.11	0.813	0.594	0.62	0.372	0.625
201T	0.948	0.928	0.917	1.05	0.894	1.03	1.06	1	1.06	1.06	0.444	0.479	0.384	0.352	0.927	0.828	0.896	0.891	0.374	0.939
NCI-H358	0.571	0.687	0.631	0.723	0.171	0.595	0.471	0.377	0.384	0.435	0.443	0.264	0.266	0.255	0.662	–	0.602	0.455	0.349	0.671
NCI-H596	0.53	0.541	0.586	0.571	0.587	1.05	0.94	1.21	1.08	0.979	0.821	0.67	0.633	0.732	0.743	0.475	0.503	0.365	0.626	0.654
NCI-H838	0.67	0.756	0.69	0.589	0.308	1.07	0.939	0.935	0.858	0.32	0.798	0.465	0.528	0.487	0.721	0.717	0.695	0.57	–	0.401

— the supplement of paper PMC10307832
